# Patent US9273101B2, “Functionalized biomaterials for tissue regeneration” (Nanomed3D S.R.L., priority 2011, dated 2016)
# Entries after “also recorded” stand apart in the source; their conditions may differ.
# Key:
# [1] = Rheology of SAPeptide solutions and self-assembled scaffolds; format: physicochemical; details: 1% w/v, 2% w/v and 3% w/v
# Experimental: Rheological properties of the self-assembling peptides of the invention were determined using a controlled stress TA Instruments AR-2000ex rheometer (TA Instruments). A cone-and-plate geometry (acrylic cone diameter, 20 mm; angle, 1°; truncation gap 34 μm) was used. Preliminary strain sweeps were performed for each sample to define the linear viscoelastic region, thus ensuring that moduli were independent of strain. Time sweeps, after addition of PBS (1×) were recorded at 25 C (angular frequency ω=1 Hz) and continued till G′ plateaued. Frequency sweeps, both for peptide water solutions and for self-assembled scaffolds, were performed at 25 C with the instrument in oscillatory mode at controlled strain of 1%. Final strain sweeps was performed at 1 Hz oscillatory frequency and at 25 C: onset point of failure was calculated by linear interpolation and subsequent determination of the intersection of the G′ modes within the linear region and at material failure respectively.
# [2] = test system: murine NSCs; test: Immunofluorescence of differentiated NSC progeny on SAP scaffolds, murine; format: cell-based
# Experimental: (§1) In vitro tests were performed as previously described (8), in order to assess whether the biomaterials (assembled hydrogels) obtained with the SAPs of the present invention influenced NSCs adhesion, survival and/or differentiation. SAPeptides (30 μl for each well at a concentration of 10 mg/ml) were assembled into 96 multiwells two hours before cell. Cells (at a concentration of 2×10^4 cells/cm^2) were seeded on the top-surface of each assembled scaffold. Initially, cells were cultured with basal medium supplemented with βFGF (10 ng/ml), added to […]. At 3 days in vitro (DIV), βFGF medium was replaced with Leukemia Inhibitory Factor (LIF, Chemicon) (20 ng/ml) and Brain Derived Neurotrophic Factor (BDNF, Peprotech) (20 ng/ml). Fresh medium was added every three days. For both viability and differentiation assays positive and negative controls consisted of Cultrex-BME® substrate (R&D systems) (1:100 dilution in basal medium) and untreated bottom well surfaces respectively. Cell viability was quantified via CellTiter 96® Aqueous Proliferation Assay (Promega) at 7 DIV as recommended in the Promega protocol. After calibrating the linear response between the cell number and absorbance values, proliferated cell populations were quantified (n=5) by using a Vmax microplate reader (Molecular Devices) at 490 nm wavelength. Values, reported as means±standard error of the mean, were blanked to their respective controls consisting of same substrates and cell culture media without cells.
# (§2) Immunofluorescence tests were performed for assaying the phenotypes of the differentiated human and murine NSC progenies. In the case of KLP and Ac-KLP just murine NSC have been used. Ac-KLP and KLP scaffolds were prepared at different concentrations in order to display three different stiffness values (viz. 100, 500 and 1000 Pa). This was done to assess the influence of scaffold concentration (and consequently its stiffness) over NSC differentiation. All the other peptides were tested at 1% v/w concentration instead. The following antibodies were used: rabbit polyclonal against GFAP (1:500, DakoCytomation) for astrocytes, mouse monoclonal against βIII-Tubulin (1:500, Covance) for neurons, mouse monoclonal against GalC (1:200, Chemicon) and O4 (1:200, Chemicon) for oligodendrocyes. Secondary Abs were Goat anti Mouse Alexa 488 (1:1000, Molecular Probes), Goat anti Mouse Cy3 (1:1000, Jackson Immunoresearch), Goat anti Rabbit Cy3 (1:1000, Jackson Immunoresearch). Cell nuclei were counterstained with DAPI (Molecular Probes). Quantitative analyses were performed by counting 100-300 cells for each of 9 randomly chosen fields over a total of 3 independent experiments. Phase contrast and fluorescence images of the adhering cells were acquired via Zeiss microscopes Axioplan 2 and ApoTome System at one week after seeding.
# [3] = test system: human NSCs; test: Imaging and cell proliferation assay (CellTiter 96 MTS) on assembled hydrogels, human NSCs; format: cell-based; details: 7 DIV
# Experimental: as §1
# [4] = test system: murine NSCs; test: Imaging and cell proliferation assay (CellTiter 96 MTS) on assembled hydrogels, murine NSCs; format: cell-based; details: 7 DIV
# Experimental: as §1
# [5] = test system: human NSCs; test: Immunofluorescence of differentiated NSC progeny on SAP scaffolds, human; format: cell-based; details: 1% scaffold, compared to Cultrex positive control
# Experimental: as §1
# as §2, with “Cell nuclei were counterstained with DAPI (Molecular Probes).” left out
# [6] = test system: murine NSC; test: NSC differentiation on exposure to soluble heptapeptides (immunofluorescence); format: cell-based; details: 12 DIV, Cultrex and Laminin coated wells, peptide 0.1 mg/ml in media, vs untreated NSCs, p<0.05
# Experimental: In vitro tests were performed as previously described (8), in order to assess whether the heptapeptides obtained of the present invention influence NSCs differentiation.
# Murine cells (at a concentration of 2×10^4 cells/cm^2) were seeded in each well (96 multi-well plate) previously coated with Cultrex-BME® substrate (R&D systems) (1:100 dilution in basal medium, overnight incubation) or with Laminin (Roche) (1:5 dilution in PBS 1×, pH 7.4, overnight incubation).
# Initially, cells were cultured with basal medium supplemented with βFGF (10 ng/ml), added to enhance neuronal progeny differentiation. At 3 days in vitro (DIV), βFGF medium was replaced with Leukemia Inhibitory Factor (LIF, Chemicon) (20 ng/ml) and Brain Derived Neurotrophic Factor (BDNF, Peprotech) (20 ng/ml). Fresh medium was added every three days. The chosen peptides were dissolved in all cell culture media (but not in the coatings) at a concentration of 0.1 mg/ml.
# Immunofluorescence tests were performed for assaying the phenotypes of the differentiated murine NSC progenies. The following antibodies were used: rabbit polyclonal against GFAP (1:500, DakoCytomation) for astrocytes and mouse monoclonal against βIII-Tubulin (1:500, Covance) for neurons. Secondary Abs were Goat anti Mouse Alexa 488 (1:1000, Molecular Probes), Goat anti Mouse Cy3 (1:1000, Jackson Immunoresearch), Cell nuclei were counterstained with DAPI (Molecular Probes). Quantitative analyses were performed by counting 100-300 cells for each of 9 randomly chosen fields over a total of 3 independent experiments.
# Values, reported as means±standard error of the mean (FIG. 1A).
# [7] = 1% scaffold, compared to Cultrex positive control
substance,measurement,setting,value
Ac-KLPGWSGGGGLDLKLDLKLDLK-CONH2 (Ac-KLPGWSGGGGLDLKLDLKLDLK-NH2),G′ and G″ values at different concentrations,[1],increased with concentration increments
same,differentiated neurons (βIIITubulin positive cells) in correspondence of stiffness reductions,"[2]; scaffold stiffness 100, 500 and 1000 Pa",significant increments
NH2-FAQRVPPGGGLDLKLDLKLDLK-CONH2 (H-FAQRVPPGGGLDLKLDLKLDLK-NH2),"cell morphology, adhesion and spreading on assembled hydrogels",[3],spread and branched cells
same,cell viability / proliferated cell population (MTS),"[3]; scaffolds 10 mg/ml, vs control, P<0.03",significantly fostered cell viability; also recorded: cell population was bigger; also recorded: significantly favored
same,number of neurons (βIII-Tubulin) obtained,[2]; [7],significantly higher
same,number of oligodendrocytes (GalC/O4) obtained,[2]; [7],significantly higher
same,"cell morphology, adhesion and spreading on assembled hydrogels",[4],spread and branched cells
same,cell viability / proliferated cell population (MTS),"[4]; scaffolds 10 mg/ml, vs control, P<0.005",significantly fostered cell viability; also recorded: cell population was bigger; also recorded: significantly favored
same,number of neurons (βIII-Tubulin) obtained,[5],significantly higher
same,number of oligodendrocytes (GalC/O4) obtained,[5],significantly higher
NH2-GETRAPL-CONH2 (H-GETRAPL-NH2) [#GET],percentage of differentiated neurons (Beta III Tubulin staining),[6],significant increase
NH2-HAIYPRH-CONH2 (H-HAIYPRH-NH2) [#HAI],percentage of differentiated neurons (Beta III Tubulin staining),[6],significant increase
NH2-KLPGWSG-CONH2 (H-KLPGWSG-NH2) [#KLP],percentage of differentiated neurons (Beta III Tubulin staining),[6],significant increase; also recorded: Highest increase
